Data from patent US8197865B2, “Methods and compositions for modulating hair growth or regrowth” (Access Business Group International LLC, priority 2005, dated 2012).

Legend:
[1] = tested on: KGF secretion by human dermal papilla cells; assay: KGF secretion by human dermal papilla cells, ELISA; format: cell-based; details: for Average % KGF Secretion: % control vs untreated control cells, overnight, typically 0.1, 1, 10 μg/ml
Experimental: (§1) The ability of each of the ingredients in the compositions of the present invention to stimulate or increase secretion of growth factors, such as VEGF and KGF was measured. One of ordinary skill in the art will appreciate that there are numerous methods for measuring the ability of a substance to stimulate secretion of a growth factor. One example of such a method is set forth below and described in Lachgar S., et al., 1998. “Minoxidil upregulates the expression of vascular endothelial growth factor in human hair dermal papilla cells.” Br J. Dermatol. 138:407-11, the entire contents of which are incorporated by reference herein.
(§2) For example, to measure the ability of a compound to stimulate secretion of a growth factor, 100 mg of each test sample in powder form was measured. A 50 mg/ml total extract of the sample was then prepared by sequential addition of DMSO:ethanol:water in a ratio of 5:3:2. One of ordinary skill in the art will understand that other amounts of sample may be used. For example, to prepare a 100 mg sample, 1 mL DMSO, 0.6 ml ethanol, and 0.4 ml water are mixed together.
(§3) This solution is extensively mixed by vortexing and incubating for 10 minutes in a sonic water bath. Each sample ingredient is diluted from the stock concentration of 50 mg/ml to a test concentration (i.e., typically, 0.1, 1, and 10 μg/ml) in tissue culture media.
(§4) The effect of each test sample ingredient may be measured using human dermal papilla cells, which may be purchased from Cell Applications (San Diego, Calif.). In particular, the cells are plated at 3.5×10^4/well in a standard 24 well tissue culture plate using a proprietary medium supplied by the company. Following plating, the cells are incubated overnight. The following day, the media in the wells is aspirated and replaced with fresh media containing the diluted sample ingredient. The cells are again incubated overnight with the samples.
(§5) Growth factors in the cell culture supernatants are assayed using commercially available ELISA kits according to the manufacture's specifications. For example, an ELISA assay may be run to detected either KGF, VEGF, or both. An ELISA kit for detecting KGF may be purchased from R&D Systems (Minneapolis, Minn.). An ELISA kit for detecting VEGF may be purchased from Biosource International (Camarillo, Calif.).
(§6) Data are reported as % control compared to the level of growth factor secreted from untreated control cells.

[2] = tested on: VEGF secretion by human dermal papilla cells; assay: VEGF secretion by human dermal papilla cells, ELISA; format: cell-based; details: for Average % VEGF Secretion: % control vs untreated control cells, overnight, typically 0.1, 1, 10 μg/ml
Experimental: as §1, §2, §3, §4, §5, §6

[3] = tested on: DHT synthesis in DU-145 cells; assay: Dihydrotestosterone (DHT) synthesis by human prostate cells (DU-145), DHT ELISA; format: cell-based; details: for Average % DHT Synthesis Observed: % control vs DHT in untreated control cells, testosterone 1 nM, 6 hours, test concentrations typically 0.1, 1, 10 μg/ml
[4] = tested on: proteasome; assay: Proteasome inhibition, fluorescent substrate kit; format: biochemical; details: % control vs proteasome activity without inhibitor or test sample; test concentration given as 50 mg/ml
Experimental: The ability of each of the ingredients in the compositions of the present invention to inhibit proteasome activity was measured. One of ordinary skill in the art will appreciate that there are numerous methods for measuring the ability of a substance to inhibit proteasome activity. One example of such a method is set forth below and described in U.S. Pat. No. 6,410,512, the entire contents of which are incorporated by reference herein.
as §2, with “inhibit proteasome activity,” for “stimulate secretion of a growth factor,”, “neat” for “powder”
This solution is extensively mixed by vortexing and incubating for 10 minutes in a sonic water bath. Each sample ingredient is diluted from the stock concentration to a test concentration of 50 mg/ml in proteasome reaction buffer media.
Inhibition of proteasome activity may be assayed using a proteasome kit that is commercially available, for example from Boston Biochem (Boston, Mass.). Test sample ingredients are first added to the proteasome provided with the kit. The fluorescent proteasome substrate is then added and cleavage of the substrate by the proteasome is monitored using a fluorescence plate reader. Data are expressed as % control compared to proteasome activity without any inhibitor or test sample added.
as §6

Compound	Effect on KGF secretion, in words (summary of Table 3) [1]	Average % KGF Secretion [1] [%]	Average % VEGF Secretion [2] [%]	Average % DHT Synthesis Observed [3] [%]	Average % Proteasome Activity [4] [%]	Effect on VEGF secretion, in words (summary of Table 3) [2]	Effect on DHT synthesis, in words (summary of Table 2) [3]
C[C@@H]1O[C@@H](O[C@H]2C(=O)c3c(O)cc(O)cc3O[C@@H]2c2ccc(O)c(O)c2)[C@H](O)[C@H](O)[C@H]1O [Astilbin]	most potent inhibitors of KGF secretion	85.4	122.9	78.0	47.7		
CC1=C(/C=C/C(C)=C/C=C/C(C)=C/C=C/C=C(C)/C=C/C=C(C)/C=C/C2=C(C)C(=O)[C@@H](O)CC2(C)C)C(C)(C)C[C@H](O)C1=O [Astaxanthin]		327.1	249.4	103.9	114.0	most potent stimulators of VEGF	
O=c1cc(-c2ccc(O)c(O)c2)oc2cc(O)cc(O)c12 [Luteolin]		147.8	123.2	96.2	76.4		
O=C(CCCCc1ccc2c(c1)OCO2)N1CCCCC1 [Cosmoperine ™, tetrahydropiperine]	most potent inhibitors of KGF secretion	75.1	172.5	130.1	67.6		
O=c1cc(-c2ccc(O)c(-c3c(O)cc(O)c4c(=O)cc(-c5ccc(O)cc5)oc34)c2)oc2cc(O)cc(O)c12 [Amentoflavone]		209.5	186.2	163.9			
disodium lauraminodipropionate tocopheryl phosphate [Vital ET ™]		103.0	107.9	72.1	68.3		most potent inhibitors of DHT synthesis
